Laboratory results from a melting point compilation (Tetko et al.; mined from patent text by program, amines drawn as free bases though some values may be those of a salt).

Point of comparison: `CCCCCCCCCCCCCCCCCCCCCCOC(=O)C(C)O` (stereo not given), melting point 57 °C. Against it:
- CC(=S)Nc1ccc(C(=O)O)cc1 — higher, 220 °C
- c1ccc(Nc2ncnc3cnccc23)cc1 — higher, 161 °C
- CN(c1cccc2cc(-c3ncc(CCC#N)s3)[nH]c12)S(=O)(=O)c1cccs1 — higher, 207 to 208 °C
- CSC1=NCCN1CC(C)O (stereo not given) — higher, 114 to 116 °C
- CCOC(=O)C1=C(COCCNC=O)NC(C)=C(C(=O)OC)C1c1cccc(Cl)c1Cl (stereo not given) — higher, 178 to 181 °C
- CC(=O)Oc1cc2c(nc1C)C(=O)OC2=O — higher, 123 to 125 °C
- Brc1ccc(-c2c(-c3ccccc3)c(-c3ccccc3)c(-c3ccccc3)c(-c3ccccc3)c2-c2ccc(Br)cc2)cc1 — higher, 245 °C
- Clc1c2ccccc2nc2occc12 — higher, 112 to 113 °C
- CS(=O)(=O)ON=C(C#N)C=Cc1ccccc1 — higher, 127 to 129 °C
- COC1CCCNC(=O)C1 (stereo not given) — higher, 70 to 73 °C
- C[Si](C)(C)C(N)Cc1ccccc1 (stereo not given) — higher, 67 to 68 °C
- Cn1cc(C2=C(c3cn(CO)c4ccccc34)C(=O)NC2=O)c2ccc([N+](=O)[O-])cc21 — higher, 210 to 213 °C
- CCOC(=O)c1ccc(-c2ccc(OC)c3c2OCCO3)cc1 — higher, 141 to 142 °C
- Cc1ccccc1C(O)c1cncnc1C(C)(C)C (stereo not given) — higher, 125 to 127 °C
- CCOC(=O)CN1C(=O)N(c2ccc(C)cc2)C2(CCCCC2)C1=O — higher, 132 °C
- O=C(O)c1ccc(-c2cnc3c(c2)N(Cc2c(Cl)cccc2Cl)C(=O)CN3)cc1 — higher, > 200 °C
- O=C(Nc1ccc(-n2nc(C(F)(F)F)cc2C(F)(F)F)cc1)c1c(F)c(F)cc(F)c1F — higher, 235 to 237 °C
- O=C(c1ccc(Cl)cc1)P1(=O)Oc2ccccc2-c2ccccc21 (stereo not given) — higher, 125 to 131 °C
- COc1ccc(C2C(C#N)=C(N)OC3=C2C(=O)CC(C)(C)C3)cc1 (stereo not given) — higher, 197 to 200 °C
- O=C(Nc1c(F)cccc1F)c1c(O)ccn2c1nc1ccccc12 — higher, 232 to 235 °C
- CC(=O)OC1CCc2cc(N(C(C)=O)S(C)(=O)=O)c(Oc3ccccc3)cc21 (stereo not given) — higher, 70 °C
- N#Cc1c(O)nc2ccc(Cl)cc2c1O — higher, 275 to 277 °C
- CCCCCCCCCCCCCCCc1ccc(-c2nc(-c3ccccc3Cl)nn2C)cc1 — higher, 62 to 65 °C
- CCC(=O)N[C@@H](C)C(=O)N1CCC[C@H]1C(=O)NC1CCCCC1 — higher, 172 to 174 °C
- CN(CC1CCN(CC2COc3ccccc3O2)CC1)c1nc2ccccc2s1 (stereo not given) — higher, 125 °C
- CCC(=O)N=C(Nc1c(Cl)cccc1Cl)SC — higher, 165 to 170 °C
- COc1ccc(C2=NN(C3CCN(C(=O)c4ccccc4)CC3)C(=O)CC2)cc1OC — higher, 152 to 154 °C
- CC(C)c1cccc(C(C)C)c1NC(=O)NCC1(c2ccc(N(C)C)cc2)O[C@H](C)[C@@H](C)O1 — higher, 165 to 167 °C
- COC(=O)C=Cc1ccc(F)cc1 — lower, 43 to 46 °C
- O=C(NCCCc1ccccc1)NCc1ccccn1 — higher, 89 to 90 °C
- CC(=O)C(C)n1nc(C(=O)NC2CN(C)CCN(Cc3ccccc3)C2)c2ccccc21 (stereo not given) — higher, 97 to 100 °C
- C[C@]12CCC(=O)N[C@@H]1CCc1cc(-c3cccc4ccccc34)ccc12 — higher, 247 to 248 °C
- COc1cccc(-c2nn(C(C)c3oc4ccccc4c(=O)c3-c3ccccc3)c3ncnc(N)c23)c1 (stereo not given) — higher, 176 to 178 °C
- COc1ccc(C(Cc2ccc(NC(=O)OC(C)(C)C)cc2)c2ccccc2)cc1OC1CCCC1 (stereo not given) — higher, 123 °C
- CCCCCCCOc1ccc(C(C)O)cc1 (single isomer, unassigned; (+)) — lower, 36.7 °C
- CC(=O)Oc1ccc(-c2cnc(NS(=O)(=O)Cc3ccccc3)c(Cc3ccccc3)n2)cc1 — higher, 240 to 241 °C
- C#CCOCC1=C(C(=O)OCC)C(c2cccc(Cl)c2Cl)C(C(=O)OC)=C(C)N1 (stereo not given) — higher, 104 to 105 °C
- Cn1cncc1C(O)(c1ccc(Cl)cc1)c1cc2c3c(c1)c(-c1cccc(Cl)c1)cc(=O)n3CC2 (stereo not given) — higher, 214 °C
- O=C(O)CCCc1cc2nc(Cl)ccc2n1S(=O)(=O)c1ccc(Cl)cc1Cl — higher, 154 to 155 °C
- O=C(NN1CCCNC1=O)OCc1ccccc1 — higher, 161 to 163 °C
- CCOC(=O)C1=C(C)NC(C)=C2C(=O)Nc3ccccc3C21 (stereo not given) — higher, 236 to 238 °C
- COC(=O)c1nc(-c2ccc(Cl)cc2)n(-c2ccc(Cl)cc2Cl)n1 — higher, 153 to 154 °C
- Cc1c(CN(O)Cc2ccccc2)c(C)c(CN(O)Cc2ccccc2)c(C)c1CN(O)Cc1ccccc1 — higher, 193 to 195 °C
- CC(=O)NC[C@H]1CN(c2ccc3c(c2)CCSc2cn[nH]c2-3)C(=O)O1 — higher, 186 to 187 °C
- CN(CCc1ccc(Nc2ncc3c(n2)-c2ccccc2C(c2cccc(Br)c2)C3)cc1)CCc1ccccn1 (stereo not given) — higher, 75 to 77 °C
- FC(F)(F)c1cc(C(F)(F)F)c2nc(N3CCN(c4ncccc4C(F)(F)F)CC3)[nH]c2c1 — higher, 142 °C
- COC(=O)c1c(SC(C)C)c2cc(OC)ccc2n1C — higher, 93 to 95 °C
- CN1CCC(N=[N+]=[N-])(c2ccccc2)C(O)C1 (stereo not given) — higher, 170 to 171 °C
- Nc1ncc(C2CCN(c3ccc([N+](=O)[O-])cc3)CC2)c(N)n1 — higher, > 250 °C
- CCNC(=O)CC1CCN(Cc2cnc3cc(NC(=O)c4ccc(-c5ccc(F)cc5)cc4)ccc3c2)CC1 — higher, 224 to 227 °C
- CC(C)(C)N(CCOCC#Cc1cncs1)C(=O)C(=O)O — higher, 104 to 105 °C
- CC(C)CN(CC(C)C)c1ccc(NC(=O)N(C[C@H]2CC[C@H](CN(C(=O)Nc3ccc(N(CC(C)C)CC(C)C)cc3)C3CCCCC3)CC2)C2CCCCC2)cc1 — higher, 140 to 142 °C
- S=C(NCc1ccccc1)C1(c2ccccn2)CCCS1 (stereo not given) — higher, 71 °C
- CC(C)(C)N1Cc2ccccc2P1(=O)c1ccccc1 (stereo not given) — higher, 89 to 91 °C
- CCCCCS(=O)(=O)NC(=O)CCc1ccc(OCC(=O)N(CC)CC)cc1Oc1ncc(C(F)(F)F)cc1Cl — higher, 111 to 113 °C
- Cc1ccc2c(N)c(C#N)sc2n1 — higher, 241 to 242 °C
- CS(=O)(=O)c1cccc(C2=C(C3CCCC3)CCC2=NO)c1 — higher, 164 to 165 °C
- Cc1ccc(-c2ccc(NN)nn2)c(OCC(O)CNC(C)(C)C)c1 (stereo not given) — higher, 145 to 155 °C
- CN(CCN)C(=O)N1N=C2c3cc(F)ccc3OC[C@@H]2[C@@H]1c1ccccc1 (racemic) — higher, 113 °C
- O=C(NCc1ccc(F)c(F)c1)c1ccnc(N2CCN(Cc3ccccn3)C2=O)c1 — higher, 143 to 145 °C
- O=C1CCC(N2C(=O)c3cccc(OCc4ccc(CN5CCSCC5)cc4)c3C2=O)C(=O)N1 (stereo not given) — higher, 221 to 223 °C
- CC[C@H](C)CCCCCOc1ccc(C(=O)Oc2ccc(O)cc2)cc1 — higher, 75 °C
- COc1ccc(NC(=N)c2ccc(SC)cc2)cc1 — higher, 166 to 168 °C
- O=C(CBr)c1ccc(Sc2ccccc2)cc1 — lower, 46 °C
- CC1(Br)C(Br)=C(Br)C(Br)=C1Br — higher, 60 to 61 °C
- O=C(Nc1ccc(C(=O)N2CCc3cn[nH]c3-c3ncccc32)cc1)c1ccccc1-c1ccccc1 — higher, 250 to 251 °C
- CCOC(OCC)C(O)(Cc1c(NC(=O)C(C)(C)C)cnc(Cl)c1C)c1ccccc1 (stereo not given) — higher, 133 °C
- Cc1cc(SC(C)C)c(NC(=O)CCCCSc2nc3ccccc3s2)c(SC(C)C)n1 — higher, 107 to 109 °C
- COCCNC(=O)c1cccc(NC(=O)Oc2ccccc2)c1 — higher, 142 to 150 °C
